# Measurements as given in patent US20220089592A1, “IMIDAZO[1,2-A]PYRIDINYL DERIVATIVES AS IRAK4 INHIBITORS” (priority 2019, published 2022).
# Where a name gives a salt, the structure may show the parent alone.
# How the values were obtained:
# IRAK4 [1] = target: T1, IRAK4 (Homo sapiens, UniProt Q9NWZ3); test: 2-hour 10 μM ATP Biochemical Assay (MesoScale Detection format; IRAK4 phosphorylation of biotin labeled IRAK1 activation loop peptide); settings: IRAK4 MSD BIOCHEMICAL (10 μM ATP) IC50 (μM), 1 nM IRAK4, 2 hours
# T1 sequence (Q9NWZ3 1-460): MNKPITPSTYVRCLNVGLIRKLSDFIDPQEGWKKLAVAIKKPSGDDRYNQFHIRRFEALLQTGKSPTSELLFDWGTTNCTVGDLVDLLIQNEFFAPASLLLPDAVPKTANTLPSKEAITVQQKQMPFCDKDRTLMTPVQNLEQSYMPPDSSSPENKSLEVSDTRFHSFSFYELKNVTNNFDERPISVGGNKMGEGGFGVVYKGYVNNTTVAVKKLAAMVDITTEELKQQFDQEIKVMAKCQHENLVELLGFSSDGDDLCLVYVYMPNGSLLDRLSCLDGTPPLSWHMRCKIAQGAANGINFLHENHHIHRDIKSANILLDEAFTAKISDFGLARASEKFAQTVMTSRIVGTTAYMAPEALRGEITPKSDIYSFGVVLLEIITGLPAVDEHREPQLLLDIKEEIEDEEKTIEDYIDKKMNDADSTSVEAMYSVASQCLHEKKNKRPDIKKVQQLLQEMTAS
# Summary of the method: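 Electrochemiluminescent MSD readout: after streptavidin capture, phosphothreonine on the biotin-labelled IRAK1 activation-loop peptide detected by rabbit antibody and Sulfo-Tag secondary. Phosphorylation ran 2 h with 10 μM ATP before EDTA quench.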
# IRAK4 [2] = target: T1, IRAK4; test: 2-hour 1 mM ATP IRAK4 Biochemical assay (as above, but with 100 pM IRAK4 and 1 mM ATP); settings: IRAK4 MSD BIOCHEMICAL (1 mM ATP) IC50 (μM), 100 pM IRAK4, 2 hours
# Summary of the method: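 MSD electrochemiluminescence read-out: biotinylated peptide product bound to streptavidin plates, probed with anti-P-Thr rabbit antibody and Sulfo-Tag goat anti-rabbit. Kinase reaction used 1 mM ATP and 100 pM IRAK4 over 2 hours before EDTA quench.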
Compound,IC50 (IRAK4 [1]) [µM],IC50 (IRAK4 [2]) [µM]
"CCOc1nc2nc(CCCOC)cn2cc1NC(=O)c1cccc(C(F)F)n1 [Example 242, 6-(difluoromethyl)-N-(7-ethoxy-2-(3-methoxypropyl)imidazo[1,2-a]pyrimidin-6-yl)picolinamide]",0.001,0.003
"CCOc1cc2nc([C@H](F)[C@H]3CCOC3)cn2cc1NC(=O)c1cccc(C(F)(F)F)n1 (single isomer, unassigned) [Example 146]",0.001,0.001
"CCOc1cc2nc(C3CCOCC3)cn2cc1NC(=O)c1cccc(OC)c1F [Example 215, N-(7-ethoxy-2-(tetrahydro-2H-pyran-4-yl)imidazo[1,2-a]pyridin-6-yl)-2-fluoro-3-methoxybenzamide]",0.008,0.037
"CCOc1cc2nc(CC3CCOCC3)cn2cc1NC(=O)c1cccc(C(F)F)n1 [Example 151, 6-(difluoromethyl)-N-(7-ethoxy-2-((tetrahydro-2H-pyran-4-yl)methyl)imidazo[1,2-a]pyridin-6-yl)picolinamide]",0.001,0.002
"CCOc1cc2nc(C3CCSC3)cn2cc1NC(=O)c1cccc(C(F)F)n1 (centres unmarked) [Example 150, 6-(difluoromethyl)-N-(7-ethoxy-2-(tetrahydrothiophen-3-yl)imidazo[1,2-a]pyridin-6-yl)picolinamide]",0.001,0.002
"CCOc1cc2nc(C(F)C3CCOC3)cn2cc1NC(=O)c1cccc(C(F)(F)F)n1 (single isomer, unassigned) [Example 144]",0.001,0.001
"CCOc1cc2nc([C@H]3C[C@@H](OC(C)C)C3)cn2cc1NC(=O)c1cccc(C(F)F)n1 [Example 136, 6-(difluoromethyl)-N-(7-ethoxy-2-((1s,3s)-3-isopropoxycyclobutyl)imidazo[1,2-a]pyridin-6-yl)picolinamide]",0.001,0.002
"COc1cc2nc(C3CC3)cn2cc1NC(=O)c1cccc(C(F)F)n1 [Example 4, N-(2-cyclopropyl-7-methoxyimidazo[1,2-a]pyridin-6-yl)-6-(difluoromethyl)picolinamide]",0.004,0.015
"CCOc1cc2nc(C3CN(CCOC)C3)cn2cc1NC(=O)c1cccc(C(F)F)n1 [Example 80, 6-(difluoromethyl)-N-(7-ethoxy-2-(1-(2-methoxyethyl)azetidin-3-yl)imidazo[1,2-a]pyridin-6-yl)picolinamide]",0.002,0.005
"CCOc1cc2nc(C(F)F)cn2cc1NC(=O)c1cccc(C(F)(F)F)n1 [Example 57, N-(2-(difluoromethyl)-7-ethoxyimidazo[1,2-a]pyridin-6-yl)-6-(trifluoromethyl)picolinamide]",0.003,0.008
"CCOc1cc2nc(COc3ccccn3)cn2cc1NC(=O)c1cccc(C(F)F)n1 [Example 86, 6-(difluoromethyl)-N-(7-ethoxy-2-((pyridin-2-yloxy)methyl)imidazo[1,2-a]pyridin-6-yl)picolinamide]",0.006,0.008
"CCOc1cc2nc(CC3CCOC3)cn2cc1NC(=O)c1ccn(CC(F)F)n1 (centres unmarked) [Example 125, 1-(2,2-difluoroethyl)-N-(7-ethoxy-2-((tetrahydrofuran-3-yl)methyl)imidazo[1,2-a]pyridin-6-yl)-1H-pyrazole-3-carboxamide]",0.004,0.01
"CCOc1cc2nc(C3CN(C)C3)cn2cc1NC(=O)c1cccc(C(F)(F)F)n1 [Example 65, N-(7-ethoxy-2-(1-methylazetidin-3-yl)imidazo[1,2-a]pyridin-6-yl)-6-(trifluoromethyl)picolinamide]",0.001,0.001
"CCOc1cc2nc(C3CCOCC3)cn2cc1NC(=O)c1ccn(CC)n1 [Example 205, N-(7-ethoxy-2-(tetrahydro-2H-pyran-4-yl)imidazo[1,2-a]pyridin-6-yl)-1-ethyl-1H-pyrazole-3-carboxamide]",0.003,0.012
"CCOc1cc2nc(C3(OC)CC3)cn2cc1NC(=O)c1cccc(C(F)F)n1 [Example 128, 6-(difluoromethyl)-N-(7-ethoxy-2-(1-methoxycyclopropyl)imidazo[1,2-a]pyridin-6-yl)picolinamide]",0.002,0.007
"CCOc1nc2nc(CC3CCOC3)cn2cc1NC(=O)c1cccc(C(F)(F)F)n1 (single isomer, unassigned) [Example 95]",0.001,0.003
"CCOc1cc2nc(C3CCOCC3)cn2cc1NC(=O)c1ccc(F)cn1 [Example 219, N-(7-ethoxy-2-(tetrahydro-2H-pyran-4-yl)imidazo[1,2-a]pyridin-6-yl)-5-fluoropicolinamide]",0.007,0.055

# The remaining lines, values ahead:
IC50 (IRAK4 [1]) [µM],IC50 (IRAK4 [2]) [µM],Compound
0.001,0.001,"CCOc1cc2nc(C3CCCC(=O)N3C)cn2cc1NC(=O)c1cccc(C(F)F)n1 (centres unmarked) [Example 246, 6-(difluoromethyl)-N-(7-ethoxy-2-(1-methyl-6-oxopiperidin-2-yl)imidazo[1,2-a]pyridin-6-yl)picolinamide]"
0.001,0.001,"CCOc1cc2nc(C34CC(C#N)(C3)C4)cn2cc1NC(=O)c1cccc(C(F)(F)F)n1 [Example 521, N-(2-(3-cyanobicyclo[1.1.1]pentan-1-yl)-7-ethoxyimidazo[1,2-a]pyridin-6-yl)-6-(trifluoromethyl)picolinamide 2,2,2-trifluoroacetate]"
0.033,0.148,"COc1nc(NC(=O)c2ccn(C)n2)cn2cc(C3CCOCC3)nc12 [Example 461, N-(8-methoxy-2-(tetrahydro-2H-pyran-4-yl)imidazo[1,2-a]pyrazin-6-yl)-1-methyl-1H-pyrazole-3-carboxamide Hydrochloride]"
0.01,0.023,"CCOc1cc2nc(C(C)(C)C#N)cn2cc1NC(=O)c1coc(C(F)F)n1 [Example 359, N-(2-(2-cyanopropan-2-yl)-7-ethoxyimidazo[1,2-a]pyridin-6-yl)-2-(difluoromethyl)oxazole-4-carboxamide]"
0.001,0.005,"CCOc1cc2nc(C34CC(C)(C3)C4)cn2cc1NC(=O)c1cccc(C(F)(F)F)n1 [Example 520, N-(7-ethoxy-2-(3-methylbicyclo[1.1.1]pentan-1-yl)imidazo[1,2-a]pyridin-6-yl)-6-(trifluoromethyl)picolinamide 2,2,2-trifluoroacetate]"
0.008,0.028,"CCOc1cc2nc(CC3CCOC3)cn2cc1NC(=O)c1cccn(C)c1=O (centres unmarked) [Example 373, N-(7-ethoxy-2-((tetrahydrofuran-3-yl)methyl)imidazo[1,2-a]pyridin-6-yl)-1-methyl-2-oxo-1,2-dihydropyridine-3-carboxamide]"
0.004,0.015,"CCOc1cc2nc(CCCOC)cn2cc1NC(=O)c1cccc(OC)n1 [Example 524, N-(7-ethoxy-2-(3-methoxypropyl)imidazo[1,2-a]pyridin-6-yl)-6-methoxypicolinamide]"
0.002,0.004,"COc1cc(NC(=O)c2cccc(C(F)F)n2)cn2cc(C3CC4(CCOC4)C3)nc12 (centres unmarked) [Example 507, 6-(difluoromethyl)-N-(8-methoxy-2-(6-oxaspiro[3.4]octan-2-yl)imidazo[1,2-a]pyridin-6-yl)picolinamide]"
